Legend:
Brachyspira infection [1] = assay: Example 5.3: lincomycin nourishment with or without EDTA Na2 salt, livestock with bloody diarrhoea partly resistant to lincomycin; format: in vivo, pigs
Text: (§1) Testing of Compositions Comprising EDTA on Pigs Suffering from Bloody Diarrhoea (Brachyspira Infection)
At a pig farm infected with the pathogen a nourishment comprising 110 ppm of lincomycin was fed with the livestock suffering from bloody diarrhoea. […] The livestock was separated proportionally, and in the test group 240 ppm of EDTA Na2 salt was admixed to the nourishment, utilizing the premix according to Example 1.

Brachyspira infection [2] = assay: Example 5.1: prevention of bloody diarrhoea, EDTA Na2 salt in the fodder on an infected pig farm; format: in vivo, pigs; conditions: 240 ppm EDTA Na2 salt in fodder via premix of Example 1
Text: as §1
On a pig farm infected with the pathogen 3 test groups of 20 animals each and one control group of 20 animals were formed from 90 days old piglets. The fodder of the animals belonging to the test groups was complemented throughout the test period (which lasted to slaughtering) with 240 ppm of EDTA Na2 salt utilizing the premix as described in Example 1.

Brachyspira infection [3] = assay: Example 5.2: treatment of pigs suffering from bloody diarrhoea, EDTA Na2 in drinking water; format: in vivo
Protocol: as §1
Pigs suffering from bloody diarrhoea, husbanded on the farm according to Example 5.1, were treated with EDTA Na2 in such a way that 200 ppm of EDTA Na2 were dissolved in the drinking water of the animals. […] In the control group where on the day following the cease of diarrhoea the animals were returned to drinking of pure water bloody diarrhoea reappeared after 4 days.

Brachyspira infection [4] = assay: Example 5.4: lincomycin-resistant animals, lincomycin therapy maintained plus EDTA Na2 in drinking water; format: in vivo, pigs
Protocol: as §1
In a part of the lincomycin-resistant animals belonging to the livestock according to Example 5.3, no treatment with another antibiotic was performed, but lincomycin therapy was maintained and simultaneously drinking water comprising 60 ppm of EDTA Na2 was added to the animals.

Brachyspira infection [5] = assay: Example 5.5: prevention in weaned piglets with complemented nourishment; format: in vivo, pigs; conditions: test group: nourishment with 240 ppm EDTA Na2, 22 ppm essential oils (1:1 oregano oil and thyme oil) and 100 ppm tannic acid
Text: Testing of Compositions Comprising EDTA on Pigs Suffering from Bloody Diarrhoea (Brachyspira Infection) At a pig farm with frequently occurring bloody diarrhoea three groups were formed randomly from weaned piglets at switching to solid nourishment. In the first group (test group) the animals were fed continuously with a nourishment comprising 240 ppm of EDTA Na2, 22 ppm of essential oils (1:1 mixture of oregano oil and thyme oil) and 100 ppm of tannic acid. In the second group (control group 1) the animals were fed continuously with a nourishment comprising essential oils and tannic acid in the above amounts but free of EDTA Na2. In the third group (control group 2) no EDTA Na2, essential oils or tannic acid were added to the nourishment of the animals. After a certain period of time soft faeces and then bloody diarrhoea appeared in the animals of control group 2 (fed with a nourishment without completion). Bacteria of Brachospira type were detected in the faeces.

SMILES	persistence of bloody diarrhoea (Brachyspira infection [1]; control group: nourishment comprising 110 ppm lincomycin without EDTA Na2 salt)	appearance of bloody diarrhoea (Brachyspira infection [2]; 90 days old piglets, until slaughtering)	need for antibiotic treatment (Brachyspira infection [2]; compared with the other animals of the farm)	cessation of bloody diarrhoea (Brachyspira infection [3]; 200 ppm EDTA Na2 dissolved in drinking water)	time to reappearance of bloody diarrhoea after withdrawal (Brachyspira infection [3]; animals returned to pure water on the day following the cease of diarrhoea)	reoccurrence of bloody diarrhoea (Brachyspira infection [3]; while 200 ppm EDTA Na2 was maintained in the drinking water)	cessation of bloody diarrhoea (Brachyspira infection [1]; 240 ppm EDTA Na2 salt (premix of Example 1) admixed to nourishment comprising 110 ppm lincomycin)	later occurrence of bloody diarrhoea (Brachyspira infection [1]; continued feeding with fodder comprising EDTA Na2 salt)	pathogenic bacteria in the faeces (Brachyspira infection [4]; 60 ppm EDTA Na2 in drinking water with lincomycin)	cessation of diarrhoea (Brachyspira infection [4]; 60 ppm EDTA Na2 in drinking water, lincomycin therapy maintained, lincomycin-resistant animals)	reoccurrence of diarrhoea (Brachyspira infection [4]; after terminating lincomycin, EDTA Na2 in drinking water continued)	abnormal biological symptoms (soft faeces, bloody diarrhoea) (Brachyspira infection [5])
CCC[C@@H]1C[C@@H](C(=O)N[C@@H]([C@H]2O[C@H](SC)[C@H](O)[C@@H](O)[C@H]2O)[C@@H](C)O)N(C)C1 [lincomycin, reference compound]	bloody diarrhoea still persisted	–	–	–	–	–	–	–	–	–	–	–
O=C([O-])CN(CCN(CC(=O)[O-])CC(=O)O)CC(=O)O.[Na+].[Na+] [EDTA Na2 salt]	–	No bloody diarrhoea appeared	no antibiotic treatment of the animals of the test groups was required	ceased on the third day	4 days	did not reoccur	completely ceased on the third day	no bloody diarrhoea occurred	No pathogenic bacteria could be detected	ceased completely within some days	did not reoccur	no abnormal biological symptom could be observed
